Measurements published in publication PMC9652372, “Glycolytic flux control by drugging phosphoglycolate phosphatase” (Nature Communications, 2022).
In brackets after ≈: the same amount, converted by molar mass. Several values for one entry are separate records, joined by “and”; a condition that tells them apart may be missing. Equal entries are not always repeated.

Experiments:
murine PGP [1] = biological target: T1, murine PGP (Mus musculus, UniProt Q8CHP8)
T1 sequence (Q8CHP8 1-321): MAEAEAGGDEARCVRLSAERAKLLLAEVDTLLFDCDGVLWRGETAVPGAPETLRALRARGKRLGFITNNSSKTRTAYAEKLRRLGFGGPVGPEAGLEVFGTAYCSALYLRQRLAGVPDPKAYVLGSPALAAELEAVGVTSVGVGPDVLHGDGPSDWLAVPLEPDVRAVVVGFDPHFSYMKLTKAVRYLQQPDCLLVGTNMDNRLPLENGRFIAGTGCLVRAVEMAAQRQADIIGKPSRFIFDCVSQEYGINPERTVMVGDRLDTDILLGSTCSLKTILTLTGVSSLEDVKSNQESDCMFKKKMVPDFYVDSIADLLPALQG

[2] = Compound solubility in 100% DMSO
murine PGP [3] = biological target: T1, murine PGP; assay: SAR: CP1, CP2 and analogs on PGP phosphatase activity (PG); assay type: biochemical; set-up: His6 (N, cleaved yes); made in house; host or cells: Escherichia coli BL21 (DE3), pETM11, co-expressed with groES-groEL-tig; settings: for inhibition of mPGP activity at 40 µM CP compared to DMSO control (%): single experiments Exp #1-3
Experimental: However, the DMSO concentration was kept constant across each assay. For SAR experiments, all compound stocks were prepared at 10 mM in 100% DMSO. A constant final DMSO concentration of 0.4% was maintained under all conditions, and solvent control samples contained 0.4% DMSO without compounds.
PGP phosphatase activity were assessed using recombinant, purified murine PGP and PG as a

SMILES	solubility in 100% DMSO [2] [mM]	inhibition of mPGP activity at 40 µM CP compared to DMSO control (%) (murine PGP [3])	mPGP activity in presence of CP relative to DMSO controls, mPGP on PG (norm.) (murine PGP [3]; CP log[M] -4.39794)	mPGP activity in presence of CP relative to DMSO controls, mPGP on PG (norm.) (murine PGP [3]; CP log[M] -4.69897)	mPGP activity in presence of CP relative to DMSO controls, mPGP on PG (norm.) (murine PGP [3]; CP log[M] -5)	mPGP activity in presence of CP relative to DMSO controls, mPGP on PG (norm.) (murine PGP [3]; CP log[M] -5.30103)	mPGP activity in presence of CP relative to DMSO controls, mPGP on PG (norm.) (murine PGP [3]; CP log[M] -5.60206)	mPGP activity in presence of CP relative to DMSO controls, mPGP on PG (norm.) (murine PGP [3]; CP log[M] -5.90309)	mPGP activity in presence of CP relative to DMSO controls, mPGP on PG (norm.) (murine PGP [3]; CP log[M] -6.20412)	mPGP activity in presence of CP relative to DMSO controls, mPGP on PG (norm.) (murine PGP [3]; CP log[M] -6.50515)	mPGP activity in presence of CP relative to DMSO controls, mPGP on PG (norm.) (murine PGP [3]; CP log[M] -6.80618)	mPGP activity in presence of CP relative to DMSO controls, mPGP on PG (norm.) (murine PGP [3]; CP log[M] -7.10721)	also measured
O=C(O)c1cc2ccccc2c(-c2c(O)c(C(=O)O)cc3ccccc23)c1O [GYJACFGQPFXKCA-UHFFFAOYSA-N]													IC50 (murine PGP [1]): > 50 µM
Cc1nnc(SCC(=O)Nc2ccc(Cc3ccc(NC(=O)CSc4nnc(C)s4)c(C(=O)O)c3)cc2C(=O)O)s1 [2E]	100 (≈ 63.1 mg/mL)	43.2961% and 38.3249% and 35.989%											
O=C(Nc1ccc(Cc2ccc(NC(=O)c3cccs3)c(C(=O)O)c2)cc1C(=O)O)c1cccs1 [2D]	50 (≈ 25.3 mg/mL)	93.8547% and 93.1472% and 91.7582%	0.09632 and 0.08995 and 0.05602	0.1303 and 0.1085 and 0.126	0.1756 and 0.1746 and 0.1485	0.2578 and 0.2672 and 0.2745	0.4504 and 0.4206 and 0.395	0.5949 and 0.6032 and 0.5826	0.7592 and 0.7328 and 0.6807	0.8952 and 0.8386 and 0.8543	0.932 and 0.8836 and 0.7843	0.9207 and 0.918 and 0.9468	mPGP activity in presence of CP relative to DMSO controls, mPGP on PG (norm.) (murine PGP [3]; CP log[M] -7.40824): 0.9632 and 0.9206 and 0.9552
O=C(O)c1cc(Cc2ccc(NC(=O)c3ccccc3[N+](=O)[O-])c(C(=O)O)c2)ccc1NC(=O)c1ccccc1[N+](=O)[O-] [2B]	10 (≈ 5.84 mg/mL)	97.486% and 99.4924% and 100.275%	0.02406 and 0.01842 and 0.02506	0.04813 and 0.03947 and 0.05013	0.08824 and 0.08421 and 0.08772	0.1631 and 0.1684 and 0.1604	0.2914 and 0.2711 and 0.2932	0.4679 and 0.4553 and 0.4662	0.6203 and 0.5816 and 0.584	0.7781 and 0.7842 and 0.7769	0.8663 and 0.8184 and 0.817	0.9358 and 0.8579 and 0.8521	mPGP activity in presence of CP relative to DMSO controls, mPGP on PG (norm.) (murine PGP [3]; CP log[M] -7.40824): 0.9332 and 0.9316 and 0.9248; PGP inhibitory potency compared to parental compound (murine PGP [3]; PG dephosphorylation assay): slightly more potent than the parental compound
O=C(O)c1ccccc1NC(=O)c1ccccc1Oc1ccccc1C(=O)Nc1ccccc1C(=O)O [1D]		14.6739% and 27.6836% and 20.8494%											
O=C(Cc1cccs1)Nc1ccc(Cc2ccc(NC(=O)Cc3cccs3)c(C(=O)O)c2)cc1C(=O)O [2C]		80.4469% and 79.9492% and 79.3956%	0.2193 and 0.2518 and 0.2324	0.388 and 0.3967 and 0.3732	0.5639 and 0.5534 and 0.5023	0.6916 and 0.6556 and 0.5915	0.788 and 0.7767 and 0.6502	0.8578 and 0.8527 and 0.8404	0.853 and 0.8789 and 0.9014	0.9181 and 0.905 and 0.9155	0.9349 and 0.9264 and 0.946	1.002 and 0.9691 and 0.9624	mPGP activity in presence of CP relative to DMSO controls, mPGP on PG (norm.) (murine PGP [3]; CP log[M] -4.09691): 0.1542 and 0.1663 and 0.1408
COc1ccc(C(=O)Nc2ccccc2C(=O)O)cc1 [1E]		33.1522% and 38.1356% and 45.1737%											
O=C(O)c1ccccc1N1C(=O)c2ccc(Oc3ccc4c(c3)C(=O)N(c3ccccc3C(=O)O)C4=O)cc2C1=O [1B]		29.6196% and 23.1638% and 21.6216%											
O=C(O)c1cccc(NC(=O)c2ccc(Oc3ccc(C(=O)Nc4cccc(C(=O)O)c4)cc3)cc2)c1 [1C]		57.0652% and 64.9718% and 66.7954%		0.5416 and 0.5073 and 0.4404	0.7056 and 0.6098 and 0.6376	0.8 and 0.7439 and 0.7317	0.9101 and 0.8268 and 0.7615	0.8683 and 0.8326					mPGP activity in presence of CP relative to DMSO controls, mPGP on PG (norm.) (murine PGP [3]; CP log[M] -4): 0.1618 and 0.1854 and 0.172; mPGP activity in presence of CP relative to DMSO controls, mPGP on PG (norm.) (murine PGP [3]; CP log[M] -4.12494): 0.2268 and 0.2271; mPGP activity in presence of CP relative to DMSO controls, mPGP on PG (norm.) (murine PGP [3]; CP log[M] -4.30103): 0.3124 and 0.2854 and 0.2844; mPGP activity in presence of CP relative to DMSO controls, mPGP on PG (norm.) (murine PGP [3]; CP log[M] -4.60206): 0.427 and 0.4195 and 0.4312; mPGP activity in presence of CP relative to DMSO controls, mPGP on PG (norm.) (murine PGP [3]; CP log[M] -4.82391): 0.6225 and 0.5805 and 0.5711
